Data published in patent publication US20210371817A1, “COMPOSITIONS AND METHODS FOR PRECISE PATTERNING OF POSTERIOR NEUROECTODERM FROM HUMAN PLURIPOTENT STEM CELLS” (WISCONSIN ALUMNI RESEARCH FOUNDATION, priority 2013, published 2021).
“Also recorded” adds a separate entry of the source.

Experiments:
H9 hESCs = assay: HOX, OTX2 and T gene expression by RT-PCR/qPCR during hESC differentiation with morphogens; format: cell-based, human
Procedure: hPSC differentiation. hPSCs were washed once with phosphate-buffered saline (PBS; Invitrogen), dissociated with ACCUTASE® (Invitrogen) for 3 min, and collected by centrifugation. hPSCs were then seeded onto VTN-NC-coated plates in E8 medium containing 10 μM ROCK inhibitor (Y27632; R&D Systems). Seeding density was 2×10^5 cells/cm^2. The following day, the cells were switched to E6 medium (same composition as E8 medium minus FGF2 and TGFβ 1). Morphogen treatments were then carried out according to the figures in the text. Cells were supplemented with FGF8b (100-200 ng/ml; Peprotech), CHIR99021 (3-6 μM; Tocris), and/or RA (3 μM; Sigma).
Reverse transcriptase polymerase chain reaction (RT-PCR). Total RNA was extracted from cells using TRIZOL® reagent (Invitrogen) according to the manufacturer's instructions. RNA was then subjected to reverse-transcription using a Thermoscript™ RT-PCR kit (Invitrogen) in a 20 μL mixture according to the manufacturer's instructions. The resulting cDNA was then amplified in a 25 μL mixture containing 10×PCR buffer, 0.2 mM dNTP, 1.5 mM MgCl2, 0.5 μM of each primer, and 1 U Taq DNA polymerase (Invitrogen). Amplified products were resolved on 2% agarose gels containing SYBR Safe (Invitrogen) and visualized with a VersaDoc (BioRad). Primer sequences can be found in Table 3. All amplifications were carried out for 35 cycles. HOXC5 and HOXC6 were amplified at 58° C., all others with an annealing temperature of 55° C.
Propagation and differentiation of neuromesodermal progenitors. H9 hESCs (passage 25-45), H9 ishcat2 hESCs (passage 33-43), and IMR90-4 iPSCs (passage 31-40) were maintained in E8 medium on MATRIGEL© (BD Biosciences) as previously described. To initiate differentiation, hPSCs were passaged with ACCUTASE© (Life Technologies) onto vitronectin (VTN-NC)-coated plates at a density of 1×10^5 cells/cm^2 as previously described. The following day, cells were changed to E6 medium. 24 h later, cells were changed to E6 medium containing 200 ng/ml FGF8b (Peprotech). 24 h later, cells were washed once with 2 ml PBS, treated with ACCUTASE® for 2 min, and removed from the surface by gentle pipetting. After collection by centrifugation, cells were gently resuspended in E6 medium containing 200 ng/ml FGF8b and CHIR99021 (CHIR, concentration varied depending on cell line; Tocris) and re-seeded on VTN-NC-coated plates at a density of 1.5×10^5 cells/cm^2. Medium was not changed until 48 h after passaging. This passaging process was repeated on day 3 of CHIR 99021 treatment (re-seed density of 1.2×10^5 cells/cm^2) if extended neuromesodermal propagation was required, and 50 ng/ml GDF11 (Peprotech) was added on day 4 of CHIR 99021 treatment to initiate lumbar patterning. Cells were changed to E6 medium containing 1 μM retinoic acid (RA; Sigma) to facilitate neural transition.
qPCR. Total RNA was extracted from cultured cells using TRIZOL® (Life Technologies) according to the manufacturer's instructions. After isolation, 2-5 μg of total RNA was immediately subjected to reverse transcription using the Thermoscript™ RT-PCR kit (Life Technologies) in a 20 μL reaction according to the manufacturer's instructions. […] For all experiments, ΔΔCt values for each gene were calculated relative to ribosomal protein S18 (RPS18) RNA levels and converted to fold difference assuming 100% primer efficiency, then normalized to maximum expression levels as indicated in each figure legend. […]

[1] = system: neuromesodermal progenitors; assay: Neuroectoderm or mesoderm fate transition of neuromesodermal progenitors by flow cytometry; format: cell-based, human
Procedure: Assessment of neuroectoderm or mesoderm fate transition by flow cytometry. Grey histogram, IgG control; red histogram, antigen of interest. Data are presented as mean±standard deviation calculated from two biological replicates. (FIG. 8B) For experiments in panels FIGS. 8C-8F, neuromesodermal propagation was halted by removing FGF8b/CHIR 99021/GDF11 and adding RA. Assays were conducted after 4 days of RA treatment. (FIG. 8C) HOX profiles generated after RA treatment. Each gene is normalized to its maximum expression. Error bars are standard deviation calculated from duplicate reactions. (FIG. 8D) HoxB4 and HoxD10 expression in neuroepithelial cultures after RA treatment. Scale bars, 100 m. (FIG. 8E) Purity of Sox2, Pax6, HoxB4, and HoxD10 after 4 days of RA treatment. Sox2, Pax6, and HoxB4 were quantified using flow cytometry and HoxD10 was quantified by manual counting of dissociated cells ([…]). Error bars are standard deviation calculated from at least two biological replicates. […] (FIG. 8F) Motor neuron differentiation at cervical, thoracic, and lumbar spinal cord depths, where the motor neuron precursors show region-specific patterns of FoxP1, Isl1, and Hb9 co-expression. (FIG. 8G) Neuronal maturation from cervical, thoracic, and lumbar patterned NSCs, as assessed by immunocytochemistry (top panel; DAPI (blue) is overlaid in all images; Scale bars, 20 m) and RT-PCR (50 cycles; bottom panel).
Flow cytometry. Flow cytometry was conducted as described in the Examples above. Primary antibodies against Sox2 (mouse; 1:1000; Millipore), brachyury (goat; 1:200; R&D Systems), Pax6 (mouse; 1:200; DSHB), and HoxB4 (rat; 1:50; DSHB) were utilized. Samples were run on a FACSCaliber (BD Biosciences) and data were analyzed using Cyflogic software. Positive events were quantified by gating above the top 1% of species-matched IgG controls.
We next evaluated the transition of neuromesodermal progenitors to definitive neural progenitors. RA secreted from somites in response to declining FGF signaling elicits dorsal/ventral patterning and expression of the neuroectoderm marker Pax6 in vivo^16, 26, which led us to suspect RA serves as both the neuroectoderm fate switch and HOX ‘stop signal’. We first investigated the ability of RA to initiate neuroectoderm specification from neuromesodermal progenitors. […] At any point in neuromesodermal differentiation, the addition of RA generated highly pure (>83%) Pax6^+ neuroectoderm (FIGS. 8B-8E and FIGS. 9A-9C).

IMR90-4 iPSCs = assay: Neuromesodermal differentiation from IMR90-4 iPSCs; format: cell-based, human
Procedure: FIGS. 11A-11C show neuromesodermal differentiation from IMR90-4 iPSCs. (FIG. 11A) Timeline of neuromesodermal differentiation. (FIG. 11B) Neuromesodermal identity assessed during differentiation in 2 or 3 μM CHIR 99021. Grey histograms, IgG control. Red histograms, label of interest. Data are presented as mean±standard deviation calculated from two biological replicates. […] (FIG. 11C) Colinear HOX activation observed by qPCR during neuromesodermal differentiation. Each gene is normalized to its maximum expression. Error bars are standard deviation calculated from duplicate reactions.
Differentiation was conducted according to the protocol of FIG. 11A. Neuromesodermal identity was assessed during differentiation in both 2 and 3 μM CHIR (FIG. 11B). Grey histograms are IgG control, and red histograms are the label of interest. […] During neuromesodermal propagation, progressive HOX activation was verified by qPCR (FIG. 11C).

[2] = system: neuromesodermal progenitors; assay: Accelerated neuronal differentiation of neuromesodermal progenitors; format: cell-based, human; details: DAPT 1 μM; within 7 days
Procedure: For assessment of columnar identity by FoxP1 expression, cells were bulk passaged by scraping and re-seeded in VTN-NC-coated chamber slides at a 1:200 ratio in E6 medium containing 1 μM RA and 100 nM purmorphamine (PM; Cayman Chemicals). RA/PM treatment was carried out for 7 days, followed by an additional 7 day treatment with 10 ng/ml brain-derived neurotrophic factor (BDNF; Peprotech), 10 ng/ml glial-derived neurotrophic factor (GDNF; Peprotech), and cAMP (1 μM; Sigma). For accelerated neuronal differentiation, neuromesodermal progenitors were treated with 1 μM RA, 2 μM PM, and 1 μg/ml recombinant sonic hedgehog (SHH) for 2 days, then passaged with ACCUTASE® and re-seeded in VTN-NC coated chamber slides at 1×10^4 cells/cm^2 in E6 medium containing 1 μM RA, 1 μM DAPT (Cayman Chemicals), 10 ng/ml BDNF, 10 ng/ml GDNF, and 1 μM cAMP for 7 days.
Immunocytochemistry. Immunocytochemistry was conducted as previously described. Primary antibodies against Sox2 (1:500), brachyury (1:500), Pax6 (rabbit; 1:500; Covance), N-cadherin (mouse; 1:500; BD Biosciences), Otx2 (goat; 1:500; R&D Systems), HoxB4 (rat; 1:50; DSHB), HoxD10 (goat; 1:500; R&D Systems), NeuN (mouse; 1:100; Millipore), Hb9 (mouse; 1:50; DSHB), ISL1 (mouse; 1:100; DSHB), and FoxP1 (rabbit; 1:20,000; Abcam) were utilized. Samples were visualized on a Nikon Ti-E epifluorescence microscope or a Nikon AIR confocal microscope. […]

neuromesodermal cultures = assay: Effect of signaling pathway inhibitors on neuromesodermal identity (Sox2 and T by flow cytometry); details: for Sox2+ cells: LY-294002 10 μM, U0126 10 μM, GF109203X 3 μM, or all three at 1 μM, after 2 days
Excerpt: (FIG. 13A) Timeline of neuromesodermal differentiation and inhibitor addition. (FIG. 13B) Neuromesodermal identity assessed by Sox2 and Brachyury (T) expression after two days. Grey histograms, IgG control. Red histograms, label of interest. LY, LY-294002; U0126, U0126; Gf, GF109203X.
In an attempt to identify which downstream signaling pathways are responsible for FGF's effects, we performed our protocol with various combinations of a PI3K inhibitor (LY-294002), an MEK inhibitor (U0126), and a PKC inhibitor (GF109203X), and measured Sox2 and T levels using flow cytometry.

neuromesodermal cells = assay: Pax6 and HoxD10 expression after GDF11 with or without dorsomorphin, then RA; format: cell-based, human; details: dorsomorphin with GDF11 and throughout RA treatment
Excerpt: (FIG. 7A) Timeline of differentiation. (FIG. 7B) qPCR assessment of lumbar/sacral gene expression at day 12. A minimum concentration of GDF11 is required to activate HoxD10 and HoxA11. Each gene is normalized to the maximum GDF11 dose. Error bars are standard deviation calculated from duplicate reactions. (FIG. 7C) Expression of Pax6 in response to increased GDF11 concentrations. Data were collected by flow cytometry and represented as mean±standard deviation calculated from two biological replicates. Sox2 was uniformly expressed regardless of GDF11 treatment (data not shown). […] Grey histograms, IgG control; Red histograms, Pax6. Data are representative of two biological replicates. […] Percentages were quantified as HoxD10 labeling relative to DAPI-stained nuclei (>2500 total cells counted per sample). Scale bars, 100 μm
After neural tube closure in vivo, opposing gradients of TGFβ and SHH signaling produce distinct dorsal and ventral domains from which sensory neurons, interneurons, and motor neurons arise. Pax6, which has been identified as a neuroectoderm fate determinant, is expressed throughout most of the neural tube but is absent from the most dorsal and ventral domains. […] The ability of GDF11 to control rostral/caudal patterning is mediated by signaling via ALK5 and activation of the SMAD2/3 complex. […]

[3] = neuromesodermal progenitors exposed to E6 medium with the substance

SMILES: Cc1c[nH]c(-c2cnc(NCCNc3ccc(C#N)cn3)nc2-c2ccc(Cl)cc2Cl)n1 [CHIR 99021]
- HOX gene activation (RT-PCR) (H9 hESCs; morphogen added to E6 medium, up to 4 days): could induce Hox gene expression; also recorded: induced progressive HOX activation from HOXA1 down to HOXC5
- OTX2 expression reduction compared to RA (H9 hESCs; qPCR day 5, CHIR 99021 3 μM, RA 1 μM): > 100 fold
- Effect on ability of RA to induce Pax6 expression ([1]; added with RA): repressed its ability to induce Pax6 expression
- Brachyury+ cells [1, 3]: 96±1%
- Sox2+ cells [1, 3]: 50±8%
- Neuromesodermal identity (IMR90-4 iPSCs; 2 μM CHIR): maintained the neuromesodermal state
- Neuromesodermal identity (IMR90-4 iPSCs; 3 μM CHIR): resulted in a mesodermal shift

SMILES: C[C@H](NC(=O)Cc1cc(F)cc(F)c1)C(=O)N[C@H](C(=O)OC(C)(C)C)c1ccccc1 [DAPT]
- NeuN+ neuronal lineage cells [2]: > 95%

SMILES: CN(C)CCCn1cc(C2=C(c3c[nH]c4ccccc34)C(=O)NC2=O)c2ccccc21 [GF109203X]
- maximum dose that did not kill all cells (neuromesodermal cultures): 3 µM
- Sox2+ cells (neuromesodermal cultures): 99%

SMILES: O=c1cc(N2CCOCC2)oc2c(-c3ccccc3)cccc12 [LY-294002]
- Sox2+ cells (neuromesodermal cultures): 99%

SMILES: N#CC(=C(/N)Sc1ccccc1N)/C(C#N)=C(\N)Sc1ccccc1N [U0126]
- Sox2+ cells (neuromesodermal cultures): 99%

SMILES: c1cc(-c2cnn3cc(-c4ccc(OCCN5CCCCC5)cc4)cnc23)ccn1 [dorsomorphin]
- Pax6+ cells (neuromesodermal cells): 83±4%
